We go through one molecule from patent US6613792B1, “Treatment of premenstrual syndrome and menopause” (Designed Nutritional Products, Inc., priority 1999, dated 2003).

The subject of data set [1] is premenstrual syndrome (PMS) symptoms. The data set is described as follows: Case reports of subjects with premenstrual syndrome taking I3C capsules. In kind it is in vivo, human. On the procedure:
Capsules containing 100 to 300 mg of 1H-indole-3-methanol (I3C™ from Designed Nutritional Products, Orem, Utah, U.S.) were made by placing that amount of 1H-indole-3-methanol into gelatin capsules. Capsules containing 200 mg of 1H-indole-3-methanol (I3C™ from Designed Nutritional Products, Orem, Utah, U.S.) were made by placing that amount of 1H-indole-3-methanol into gelatin capsules. Subject A, commonly suffered from fatigue, moodiness, and bluish circles beneath their eyes prior to menstruation. During menses, which typically lasted for 7-10 days, they experienced menstrual cramping which required ibuprofen for relief. Subject A had taken I3C™ for three menstrual cycles. […] Subject B had taken I3C™ for one menstrual cycle. Their PMS symptoms prior to taking I3C™ included extreme fatigue, frequent migraine headaches, bloating, moodiness, and severe menstrual cramps. They started taking I3C™ with no knowledge of its effects or benefits. […] Subject C had been diagnosed and treated for endometriosis. Their PMS symptoms included fatigue, heavy blood flow (menorrhagia), severe menstrual cramps, and menses of approximately 10 days. Subject C had taken I3C™ for six cycles. […] Subject D, had taken I3C™ for ½ months and noticed a rapid change in their PMS symptoms.

A short description of data set [2]: Reactivity/stability of 1H-indole-3-methanol in solvent, sunlight and heat (HPLC). In kind it is physicochemical. On the procedure:
Relatively pure 1H-indole-3-methanol (I3C™ from Designed Nutritional Products, Orem, Utah, U.S.) in a water solution was prepared for HPLC analysis. One sample was diluted with water and the other was diluted with methanol. […] In the course of manufacturing and formulating dietary supplements containing 1H-indole-3-methanol, it was observed that the carbinol in the three position is extremely reactive. […] In the course of heating at 60° C., 99% of the present 1H-indole-3-methanol will disappear from HPLC chromatograms, being replaced by as many as 40 or 50 different derived compounds, virtually all of them identified as containing an indole component. More detailed studies have shown that one of the first compounds to appear in a sample of 1H-indole-3-methanol undergoing heat treatment is ([…], a “dimer” of 1H-indole-3-methanol.

A further data set relates to menopausal symptoms. Briefly: Case report of a subject with menopausal symptoms taking I3C capsules. The format is in vivo, human. To be noted: Subject E. The protocol:
Capsules containing 100 to 300 mg of 1H-indole-3-methanol (I3C™ from Designed Nutritional Products, Orem, Utah, U.S.) were made by placing that amount of 1H-indole-3-methanol into gelatin capsules. […] After the hysterectomy, Subject E had menopausal symptoms including hot flashes, occasional sweating profusion, grogginess after a full night's sleep, and almost continuous irritable bowel syndrome. Subject E started taking four 100 mg capsules of I3C™ per day, two capsules in the morning and two capsules in the late afternoon. […] Their hot flashes and excessive sweating disappeared after taking a few doses of I3C™.

[3] abbreviates: Subject C, endometriosis, six cycles.

Consider `OCc1c[nH]c2ccccc12` [I3C™, 1H-indole-3-methanol], for which, in data set [1] (Subject A, I3C taken for three menstrual cycles), the “PMS symptoms (fatigue, moodiness, bluish circles beneath eyes, menstrual cramping)” value is given as “the above symptoms were alleviated”. Besides, the duration of menses result is listed as “approximately 4 days” in data set [1] (Subject A, three menstrual cycles, typically 7-10 days before) and “approximately 5 days” in data set [1] (Subject C, six cycles, approximately 10 days before). Besides, the “PMS symptoms (extreme fatigue, migraine headaches, bloating, moodiness, severe menstrual cramps)” value in data set [1] (Subject B, within one menstrual cycle) is “experienced only mild fatigue and their remaining symptoms were alleviated”. Besides, the fatigue result in data set [1] (Subject C, endometriosis, I3C taken for six cycles) is “ceased”. The menstrual blood flow result in data set [1] (setting [3]) is reported as “decreased substantially”. Further, the “severity of menstrual cramps” value in data set [1] (setting [3]) was “decreased”. Moreover, the “PMS symptoms after starting I3C again” value in data set [1] (Subject C, restart after withdrawal) is reported as “their symptoms were alleviated”. The “PMS symptoms after stopping I3C for one menstrual cycle” value in data set [1] (Subject C, withdrawal for one cycle) was “previous PMS symptoms returned”. In data set [1] (Subject D, I3C taken for ½ months), the “PMS symptoms (bloating, headaches)” value is “less bloating and reduced headaches”. Besides, in data set [2] (heating at 60° C.), the “1H-indole-3-methanol disappearing from HPLC chromatograms on heating” value was 99%. In addition, in data set [2] (sunlight), the “stability in the presence of sunlight” value is listed as “change color in just a few hours”. Moreover, in data set [2] (water solution diluted with methanol, by the time of injection), the “HPLC peaks after dilution with methanol (reaction to methyl ether)” value was “two peaks of about the same magnitude”. In data set [2] (water solution diluted with water), the “HPLC peaks after dilution with water” value is “only one peak”. Further, the “bowel, sleep and energy symptoms” value in the data set with menopausal symptoms (four 100 mg capsules per day for one month) was “bowel regularity, less sleep disturbances, and a steady energy level throughout the day”. Further, the “hot flashes and excessive sweating” value in the data set on menopausal symptoms (partial hysterectomy, four 100 mg capsules per day, after a few doses) is given as “disappeared”.
